The values that follow come from patent publication US7250409B2, “Ningalin B analogs employable for reversing multidrug resistance” (The Scripps Research Institute, priority 2000, dated 2007).

“Also recorded” adds a separate entry of the source.

Series [1] has as its system HCT116. Briefly: Cytotoxic activity against wild-type HCT116. Type of series: cell-based, human. As to the method: (§1) Cytotoxic Activity and Reversal of Multidrug Resistance. […] (Quesada, A. R.; et al. Br. J. Cancer 1996, 74, 677.) With exception of ningalin A, (Ningalin A, lamellarin O, lukianol A, and permethyl storniamide A: Boger, D. L.; et al. J. Am. Chem. Soc. 1999, 121, 54.) the biological evaluation of the ningalin family has not been explored. Consequently, ningalin B and a number of structurally related synthetic intermediates were tested in a L1210 cytotoxic assay, and the results are summarized in FIGS. 6 and 10. […] (Ningalin A, lamellarin O, lukianol A, and permethyl storniamide A: Boger, D. L.; et al. J. Am. Chem. Soc. 1999, 121, 54.)
(Quesada, A. R.; et al. Br. J. Cancer 1996, 74, 677.) P-gp is a 170 kDa plasma membrane glycoprotein encoded in humans by the MDR1 gene which exports drugs out of mammalian cells, lowering their intracellular concentration. (Patel, N. H.; et al. Invest. New Drugs 1994, 12, 1. Gottesman, M. M.; et al. Annu. Rev. Biochem. 1993, 62, 385.) Therefore, 7-14 were also tested against a wild-type human colon cancer cell line (HCT116) and two resistant HCT116 cell lines. The first resistant cell line (HCT116/VM46) embodies the MDR phenotype and overexpresses P-glycoprotein while the second cell line (HCT116/VP35) derives its resistance through underexpression of topoisomerase II. The examination of the latter cell line along with the wild-type HCT116 and their comparison with HCT116VM46 allows an accurate assessment of the MDR sensitivity as well as an assessment of one potential therapeutic target.

Series [2] has as its system HCT116/VM46. Briefly: Reversal of multidrug resistance: resensitizing HCT116/VM46 to vinblastine and doxorubicin. The series is classed as cell-based, human. Particulars: for resensitization of HCT116/VM46 compared with verapamil: vinblastine and doxorubicin.
The subject of series [3] is L1210. Briefly: L1210 cytotoxic assay. Type of series: cell-based.
Excerpt: FIG. 6 illustrates a table with a comparison of the cytotoxic activity of ningalin B and some analogs with some commonly used compounds against three different cell lines.
as §1

Series [4] deals with T1, Pgp-170 (Homo sapiens, UniProt P08183).
T1 construct: The first resistant cell line (HCT116/VM46) embodies the MDR phenotype and overexpresses P-glycoprotein; endogenous in cells; host or cells: HCT116/VM46 (drug-resistant human colon cancer cell line)
T1 sequence (P08183 whole entry): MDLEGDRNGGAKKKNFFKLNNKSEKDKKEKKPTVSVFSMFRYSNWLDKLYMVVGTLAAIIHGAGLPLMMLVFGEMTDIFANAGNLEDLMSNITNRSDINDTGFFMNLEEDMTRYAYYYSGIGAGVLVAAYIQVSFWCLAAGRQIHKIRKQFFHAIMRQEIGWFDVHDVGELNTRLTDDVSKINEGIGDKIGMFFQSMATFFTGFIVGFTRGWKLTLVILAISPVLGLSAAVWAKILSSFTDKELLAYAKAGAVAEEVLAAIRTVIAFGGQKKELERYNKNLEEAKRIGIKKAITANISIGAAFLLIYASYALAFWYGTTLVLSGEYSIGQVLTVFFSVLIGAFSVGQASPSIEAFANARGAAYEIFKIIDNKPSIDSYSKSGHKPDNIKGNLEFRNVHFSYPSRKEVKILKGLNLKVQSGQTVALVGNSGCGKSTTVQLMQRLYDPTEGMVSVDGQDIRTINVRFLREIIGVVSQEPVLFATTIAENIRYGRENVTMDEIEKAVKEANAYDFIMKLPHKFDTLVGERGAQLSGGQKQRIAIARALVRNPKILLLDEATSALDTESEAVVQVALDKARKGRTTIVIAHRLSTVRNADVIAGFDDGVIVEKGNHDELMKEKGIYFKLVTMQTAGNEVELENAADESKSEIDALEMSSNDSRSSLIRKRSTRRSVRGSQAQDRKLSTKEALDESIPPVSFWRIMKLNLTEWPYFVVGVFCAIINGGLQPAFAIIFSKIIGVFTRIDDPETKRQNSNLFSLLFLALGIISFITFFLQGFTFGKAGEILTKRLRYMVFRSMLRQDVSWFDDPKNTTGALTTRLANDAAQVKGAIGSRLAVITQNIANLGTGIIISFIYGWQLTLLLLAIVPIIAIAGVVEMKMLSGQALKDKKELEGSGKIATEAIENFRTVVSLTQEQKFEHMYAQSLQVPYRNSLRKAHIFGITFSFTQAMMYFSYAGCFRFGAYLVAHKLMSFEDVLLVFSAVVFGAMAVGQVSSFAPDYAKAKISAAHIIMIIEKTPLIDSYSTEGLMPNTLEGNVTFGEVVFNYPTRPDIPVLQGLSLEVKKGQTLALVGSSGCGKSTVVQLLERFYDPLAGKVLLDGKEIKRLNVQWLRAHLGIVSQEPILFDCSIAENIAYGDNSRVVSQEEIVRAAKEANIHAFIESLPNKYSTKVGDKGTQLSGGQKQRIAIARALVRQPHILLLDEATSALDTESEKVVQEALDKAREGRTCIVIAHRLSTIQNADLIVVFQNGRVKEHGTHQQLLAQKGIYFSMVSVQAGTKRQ
Briefly: Inhibition of dye efflux (rhodamine 123) from HCT116/VM46. Type of series: cell-based. As to conditions: 30 min incubation in rhodamine 123 in phosphate buffer solution. On the procedure: FIG. 8 illustrates the inhibition of dye efflux (rhodamine 123) from the HCT116/VM46 cell line. Accumulation of rhodamine 123 in the HCT116/VM46 cell line after 30 min incubation in […] rhodamine in phosphate buffer solution (Quesada, A. R.; et al., Br. J. Cancer 1996, 74, 677).
Fundamentally more important, many of the agents were found capable of reversing MDR at noncytotoxic concentrations, resensitizing HCT116/VM46 to vinblastine and doxorubicin (FIGS. 7 and 11).

Where [5] appears, read: cytotoxic activity relative to ningalin B.

On to `COCOc1cc(OC)c(OC)cc1-c1c(-c2ccc(OC)c(OC)c2)c(C(=O)OC)n(CCc2ccc(OC)c(OC)c2)c1C(=O)OC` [compound 10, Dimethyl 3-(4,5-Dimethoxy-2-(methoxymethoxy)phenyl)-4-(3,4-dimethoxyphenyl)-1-[2-(3,4-dimethoxyphenyl)ethyl]pyrrole-2,5-dicarboxylate], for which the “inherent cytotoxic activity (cell line not given)” value in series [1] is on record as “lacking inherent cytotoxic activity”. Further, in series [2] (agent at 1 μM), the “ability to resensitize HCT116/VM46 to vinblastine and doxorubicin” value (from here on “ability to resensitize HCT116/VM46”) is “able to resensitize”; the “resensitization of HCT116/VM46 compared with verapamil” value is on record as “more effectively than verapamil”. Besides, in series [2] (agent at 7.5 μM), the “MDR reversal in HCT116/VM46” value is recorded as “complete MDR reversal”. The “MDR reversal, resensitizing HCT116/VM46 to vinblastine and doxorubicin” value (“MDR reversal, resensitizing HCT116/VM46” for short) in series [2] (concentration not given) was “potently reverse MDR”.

Consider `COC(=O)c1c(-c2ccc(OC)c(OC)c2)c2c3cc(OC)c(OC)cc3oc(=O)c2n1CCc1ccc(OC)c(OC)c1` [compound 11, Methyl 7,8-Dimethoxy-3-(2-(3,4-dimethoxyphenyl)ethyl)-1-(3,4-dimethoxyphenyl)-[1]-benzopyrano[3,4-b]pyrrol-4(3B)-one-2-carboxylate], for which, in series [2] (agent at 1 μM), the “MDR reversal in HCT116/VM46” value was “complete MDR reversal”; the “ability to resensitize HCT116/VM46” value is reported as “able to resensitize”; the “resensitization of HCT116/VM46 compared with verapamil” value is “more effectively than verapamil”. Besides, the “MDR reversal in HCT116/VM46” value in series [2] (agent at 7.5 μM) is “hypersensitive to vinblastine”. Further, the “MDR reversal, resensitizing HCT116/VM46” value in series [2] (concentration not given) is given as “potently reverse MDR”.

Turning to `COc1ccc(CCn2cc(-c3ccc(OC)c(OC)c3)c3c4cc(OC)c(OC)cc4oc(=O)c32)cc1OC` [compound 13, Hexamethyl Ningalin B], the “fold less active against L1210 than ningalin B” value in series [3] (setting [5]) came to 5 fold. Further, the “fold less active against HCT116 than ningalin B” value in series [1] (setting [5]) stood at 2.5 fold. In addition, in series [2] (agent at 1 μM), the “MDR reversal in HCT116/VM46” value is “complete MDR reversal”; the “ability to resensitize HCT116/VM46” value is recorded as “able to resensitize”; the “resensitization of HCT116/VM46 compared with verapamil” value is given as “more effectively than verapamil”. In series [2] (agent at 7.5 μM), the “MDR reversal in HCT116/VM46” value was “hypersensitive to vinblastine”. Moreover, the “MDR reversal, resensitizing HCT116/VM46” value in series [2] (concentration not given) is recorded as “potently reverse MDR”.

On to `COc1ccc(-c2c3n(c4c(=O)oc5cc(OC)c(OC)cc5c24)CCc2cc(OC)c(OC)cc2C3=O)cc1OC` [compound 14, 9,10-Dihydro-12,13-dimethoxy-1-(3′,4′-dimethoxyphenyl)-3,4-dimethoxy-[4,3-d]-[1]-benzopyrano-15H-benzazepino[3,2-a]-[3]-pyrrol-7,15(18H)-dione], for which the “dye efflux (rhodamine 123) from HCT116/VM46” value in series [4] is given as “inhibited dye efflux”. Moreover, the “inherent cytotoxic activity (cell line not given)” value in series [1] is recorded as “lacking inherent cytotoxic activity”. Besides, in series [2] (agent at 1 μM), the “MDR reversal in HCT116/VM46” value is on record as “hypersensitivity of HCT116/VM46 to vinblastine”; the “ability to resensitize HCT116/VM46” value is reported as “able to resensitize”; the “resensitization of HCT116/VM46 compared with verapamil” value is given as “more effectively than verapamil”. Besides, the “MDR reversal, resensitizing HCT116/VM46” value in series [2] (concentration not given) is listed as “potently reverse MDR; also recorded: most potent MDR reversal agent identified in this series”. Also, the “sensitivity of HCT116/VM46 towards vinblastine in presence of agent” value in series [2] (concentration not given, vinblastine) is given as “hypersensitivity towards vinblastine”.

For `COc1ccc(CCn2c(C(=O)N(C)C)c(-c3ccc(OC)c(OC)c3)c3c4cc(OC)c(OC)cc4oc(=O)c32)cc1OC` [compound 15, N,N-Dimethyl 7,8-Dimethoxy-3-(2-(3,4-dimethoxyphenyl)ethyl)-1-(3,4-dimethoxyphenyl)-[1]-benzopyrano[3,4-b]pyrrol-4(3H)-one-2-carboxamide], the “inherent cytotoxic activity (cell line not given)” value in series [1] is reported as “lacking inherent cytotoxic activity”. Further, in series [2] (concentration not given), the “MDR reversal, resensitizing HCT116/VM46” value is “potently reverse MDR”.

Turning to `O=c1oc2cc(O)c(O)cc2c2c(-c3ccc(O)c(O)c3)cn(CCc3ccc(O)c(O)c3)c12` [ningalin B, Ningalin B], in series [3] (L1210 cell line), the “cytotoxic activity against L1210” value is listed as “only moderately active”. In addition, the “cytotoxic activity against HCT116” value in series [1] (wild-type human colon cancer cell line HCT116) was “only moderately active”. Also, the “MDR reversal, resensitizing HCT116/VM46” value in series [2] (concentration not given) is on record as “not”.

Regarding `COc1ccc(CCN(C)CCCC(C#N)(c2ccc(OC)c(OC)c2)C(C)C)cc1OC` (stereo not drawn) [verapamil, reference compound], the “MDR reversal in HCT116/VM46” value in series [2] (agent at 7.5 μM) is “complete reversal”.
